Data reported in US20080206253A1, “Method For Preventing or Treating Pain in a Mammal” (priority 2005, published 2008).
Entries after “also recorded” stand apart in the source; their conditions may differ. Marks after values point to notes of the source that are not given here.

Key:
[1] = system: p38β; experiment: Western blot of spinal p38β protein expression after IT antisense; format: in vivo, rat; conditions: for p38β protein expression, % Expression Compared to Missense: spinal cord at day six, MS=100%, mean ±SEM n=6; for spinal p38β protein expression compared to missense (MS)-treated animals (in words): five days of IT bolus injections, p38β AS 10-20 μg (10 and 20 μg: P<0.05), p38α AS 10-30 μg
Description: It has previously been shown that inhibition of spinal p38 MAP kinase prevents both inflammation-evoked hyperalgesia and nerve injury-induced allodynia. Ji et al., Neuron 36: 57-68, 2002; Schafers et al., J Neurosci 23: 2517-2521, 2003; Svensson et al., Neuroreport 14: 1153-1157, 2003a.; Svensson et al., J Neurochem 86: 1534-1544, 2003b. It still remains to be determined whether only one or both of the p38 isoforms, that are present in the spinal cord, are involved in modulation of spinal nociceptive processing. Since there is no specific p38 isoform inhibitors available, rats were treated intrathecally with isoform specific antisense oligonucleotides (AS) in order to knock down p38α and p38β respectively. […] There were no differences between the AS-, MS- or vehicle-treated groups in terms of weight gain or motor function. The specificity of the effects of these two antisense oligonucleotides was also examined. Western blot membranes were stripped and re-incubated the with the other p38 isoform antibody. […] In Table 1, antisense was given IT once daily for 5 days and protein expression assayed in spinal chord at day six compared to protein level detected in missense treated animals (MS=100%). Each group represents mean ±SEM, n=6 per group. (*) represents P<0.05 as compared to the missense group.
Antisense oligonucleotides. Three oligonucleotides (a kind gift from ISIS Pharmaceuticals Inc.) with lengths of 20 nucleotides were employed in the study: ISIS 101757 (p38α AS) […], beginning at position 1081 in the rat p38α mRNA; ISIS 107211 (p38βAS) […], beginning at position 439 in the rat p38β mRNA; and ISIS141923 (an universe MS control) […]. These oligonucleotides were synthesized as 2′-methoxyethyl (MOE) phosphorothioate chimeric oligonucleotides in which the first and last five bases contained MOE modifications with a uniform phosphorothioate backbone. Butler et al., Diabetes 51: 1028-1034, 2002. The oligonucleotides were dissolved in artificial cerebrospinal fluid (ACSF) immediately prior to intrathecal administration. The ACSF contained (mM) 151.1 Na+, 2.6 K+, 0.9 Mg2+, 1.3 Ca 2+, 122.7 Cl−, 21.0 HCO3, 2.5 HPO4 and was bubbled with 95% O2/5% CO2 before use to adjust the final pH to 7.2. AS and MS (10-30 μg) was administrated in 10 μl ACSF followed by 10 μl saline daily for five days and behavioral experiments and spinal tissue collection performed on day six.
Western blot. Prior to sacrifice, rats were deeply anesthetized and after decapitation the spinal cords were ejected from the vertebral column by a saline-filled syringe. The lumbar part of the spinal cord was immediately homogenized in extraction buffer (50 mM Tris buffer, pH 8.0, containing 0.5% Triton X-100, 150 mM NaCl, 1 mM EDTA, phosphatase and protease inhibitors) by sonication. The tissue extracts were subjected to denaturing NuPAGE 4-12% Bis-Tris gel electrophoresis and then transferred to nitrocellulose membranes (Micronic Separation Inc. Westborough, Mass.). After blocking nonspecific binding sites with 5% low-fat milk in PBS containing 0.1% Tween 20 (PBS-T) for 1 hour in room temperature, the membranes were incubated with antibodies overnight at 4° C. After washing, the antibody-protein complexes were probed with appropriate secondary antibodies labeled with horseradish peroxidase for 1 hr at room temperature and detected with chemiluminescent reagents (SuperSignal, Pierce, Rockford, Ill.). […]

[2] = system: rats, formalin-injected hind paw; experiment: Formalin-induced flinching (paw formalin test); format: in vivo, rat
Experimental: In recent work it was shown that inhibition of spinal p38 MAP kinase attenuated formalin-induced flinching. Svensson et al., J Neurochem 86: 1534-1544, 2003b. To examine the contribution of p38α and p38β in this experimental model of hyperalgesia, animals were injected with p38α, p38β AS or MS IT for five days. These animals were then examined on the formalin test. Unilateral intraplantar formalin solution (2.5%) caused a biphasic flinching pattern where the first 9 minutes are referred to as phase I and the following 50 minutes (min 10-60) as phase II. Yaksh et al., J Neurosci 21: 5847-5853, 2001a. The phase II flinching is considered to represent afferent input initiated spinal facilitation. Dickenson and Sullivan, Neurosci Lett 83: 207-211, 1987; Puig and Sorkin, Pain 64: 345-355, 1996. […] To further confirm the role of p38 to injury-induced pain behavior, a pharmacological inhibitor was also studied: SB203580, a p38α/β non-selective inhibitor.
To quantify formalin induced flinching, an automated sensing system was employed. Yaksh et al., J Appl Physiol 90: 2386-2402, 2001b. Briefly, a soft metal band was placed on the hind paw of the animal being tested. Animals were allowed to acclimate in individual Plexiglas chambers for 30 min before being moved to a test chamber. Just before the animals were placed into the test chamber, they were briefly restrained in a cloth towel, and 2.5% formalin (50 μl) was injected into the dorsal side of the banded paw. Nociceptive behavior was quantified by automatically counting the incidences of spontaneous flinching or shaking of the injected paw. The flinches were counted for 1-min periods for 60 minutes and the flinch data are expressed as number of flinches per min and total flinches observed during phase I (0-9 min) and phase II (10-60 min).

Substance | p38β protein expression, % Expression Compared to Missense ([1]; IT antisense 30 μg once daily for 5 days) | spinal p38β protein expression compared to missense (MS)-treated animals (in words) [1] | total number of flinches during phase I or II ([2]; IT oligonucleotide daily for 5 days, 2.5% formalin into paw, compared with IT saline or MS) | p38β protein expression, % Expression Compared to Missense ([1]; IT antisense 10 μg once daily for 5 days) | p38β protein expression, % Expression Compared to Missense ([1]; IT antisense 20 μg once daily for 5 days) | number of flinches during phase two ([2]; IT p38β AS (3-20 μg) daily for 5 days, compared to saline and MS treated animals, P<0.05 (10 and 20 μg))
p38α AS: 20-nucleotide 2′-MOE phosphorothioate chimeric antisense AGGTGCTCAGGACTCCATTT, beginning at position 1081 in the rat p38α mRNA (all phosphorothioate, sugars by position and methylation of C not given here; 2'-MOE chimeric (gapmer) antisense) | 111 ± 15% | neither p38α AS nor p38β AS produced a reduction of the protein expression of the other isoform | did not differ; also recorded: no statistical difference | – | – | –
p38β AS: 20-nucleotide 2′-MOE phosphorothioate chimeric antisense GTATGTCCTCCTCGCGTGGA, beginning at position 439 in the rat p38β mRNA (all phosphorothioate, sugars by position and methylation of C not given here; 2'-MOE chimeric (gapmer) antisense) | – | significant down-regulation; also recorded: knocked down | – | 45 ± 9* % | 39 ± 12* % | statistical significant reduction; also recorded: statistically different
